Molecular target: T1, Can1 (CRISPR ancillary nuclease 1; TTHB155) (Thermus thermophilus, UniProt Q53W14)
T1 construct: full length 636 aa plus C-terminal Leu-Glu; synthetic gene, E. coli C43 (DE3) (SeMet protein in B834), N-terminal His tag cut with TEV; monomer
T1 sequence (Q53W14 1-636): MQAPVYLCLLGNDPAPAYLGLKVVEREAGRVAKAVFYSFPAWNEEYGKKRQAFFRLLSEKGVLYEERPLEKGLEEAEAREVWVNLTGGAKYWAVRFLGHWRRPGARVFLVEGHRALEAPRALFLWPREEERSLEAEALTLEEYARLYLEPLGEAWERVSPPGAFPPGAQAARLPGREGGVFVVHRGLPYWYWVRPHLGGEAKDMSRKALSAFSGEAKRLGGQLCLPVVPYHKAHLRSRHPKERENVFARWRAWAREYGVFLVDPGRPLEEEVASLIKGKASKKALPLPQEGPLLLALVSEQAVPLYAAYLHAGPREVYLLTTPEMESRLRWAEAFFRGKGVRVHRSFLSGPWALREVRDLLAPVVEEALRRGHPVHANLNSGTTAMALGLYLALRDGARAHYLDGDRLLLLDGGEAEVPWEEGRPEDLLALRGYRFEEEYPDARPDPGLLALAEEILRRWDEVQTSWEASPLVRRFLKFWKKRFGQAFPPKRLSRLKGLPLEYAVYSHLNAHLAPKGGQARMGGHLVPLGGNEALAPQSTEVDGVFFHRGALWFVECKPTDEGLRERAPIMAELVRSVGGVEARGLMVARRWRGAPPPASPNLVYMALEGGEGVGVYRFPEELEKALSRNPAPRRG
Assay: X-ray crystal structure ([…] A); also EMSA with […]-labelled cA4, SAXS and nuclease activation
Type: binding
Conditions: SeMet protein, 1:2 molar ratio with cA4, pH 6.5; site between the two CARF domains; activator

- X-ray crystal structure (1.83 A); also EMSA with 32P-labelled cA4, SAXS and nucl: A molecule of cA4 sits at the interface
Compound: Nc1ncnc2c1ncn2[C@@H]1O[C@@H]2COP(=O)(O)O[C@H]3[C@@H](O)[C@H](n4cnc5c(N)ncnc54)O[C@@H]3COP(=O)(O)O[C@H]3[C@@H](O)[C@H](n4cnc5c(N)ncnc54)O[C@@H]3COP(=O)(O)O[C@H]3[C@@H](O)[C@H](n4cnc5c(N)ncnc54)O[C@@H]3COP(=O)(O)O[C@H]2[C@H]1O [cA4]

From paper PMC6981274, “Structure and mechanism of a Type III CRISPR defence DNA nuclease activated by cyclic oligoadenylate” (Nature Communications, 2020)
